Experimental data taken from US20130252903A1, “COMPOSITIONS FOR REDUCING OXIDATIVE STRESS AND USES THEREOF” (Universitaetsklinikum Muenster, priority 2007, published 2013).
Square brackets hold non-standard residues; d marks the D form. Ends that are not written are not given here.

Key:
[1] = system: human dermal fibroblasts; test: UVA-induced intracellular amplification of ROS (dihydrorhodamine 123, flow cytometry); assay type: cell-based; settings: for effect on UVA-induced intracellular amplification of ROS compared with vitamin C (ascorbate): peptide 10^-8M vs vitamin C 10^-2M, FIG. 2; for effect on UVA-induced intracellular amplification of ROS ("oxidative stress"): peptide 10^-8 M, 24 h pre-incubation, UVA 10 J/cm^2, human dermal fibroblasts, FIG. 1, p<0.001
Description: The modulating effect of the tripeptides Lys-Pro-Val (KPV), Lys-D-Pro-Thr (KPT) and Thyrotropin Releasing Hormones (TRH, Protirelin, Thyoliberin, pGlu-His-Pro) was examined on human dermal fibroblasts that were seeded into 3.5 cm^2 tissue culture dishes in a density of 150,000 per dish in […] medium. Two days after seeding the cells, the medium supplemented with 10% foetal calf serum, 1% L-glutamine and 1% penicillin/streptomycin was exchanged with serum-free RPMI medium and pre-incubated for 24 hours with KPV, […] Subsequently, the cells were exposed to a physiological dose of UVA radiation (10 J/cm^2). Immediately after radiation, the cells were incubated with 5 μM dihydrorhodamine 123 plus 5 mM glucose in phosphate buffer (PBS) for 30 minutes. Subsequently, the cells were trypsinized, resuspended in PBS with 5 mM glucose and analyzed by means of flow cytometry (FACS, FACSCalibur with 488 nm argon laser). The above dihydrorhodamine probe is oxidized in the presence of intracellular ROS into green fluorescent […] and, thus, can be measured fluorometrically. A total of 10×10^3 cells per probe were analyzed and evaluated using CELL-QUEST software. The median of the FL-1 channel was used as parameter for the intracellular ROS amount, since it represents the maximum number of cells with the highest fluorescence. Duplicate and triplicate analyses were carried out and all assays were reproduced three times in independent experiments.

[2] = system: B16.F1 melanoma cells; test: Extracellular melanin accumulation (in situ melanin assay, optical density 405 nm); assay type: cell-based, mouse; settings: 72 hrs; for melanotropic effect (extracellular melanin accumulation): peptides at 10^-6, 10^-8 and 10^-10 M, FIG. 3
Excerpt: It is also preferred that the compounds of the invention have no or merely a negligible melanotropic effect. “Melanotropic effect” means that the compound induces the extracellular melanin accumulation in a cell assay in accordance with the method described in the appended example 2 and/or in accordance with the method described in Siegrist and Eberle (Anal. Biochem. 1986; 159; 191-197), title “In situ melanin assay for MSH using mouse B16 melanoma cells in culture”. “No or negligible” means that the mean melanin accumulation which is induced by the compounds of the invention exceeds the mean melanin accumulation which is induced by at least one of the two compounds as exemplified in Example 2 by not more than about 40%, 30%, 20%, 15%, 10%, 5%, 2.5%, 2% or 1%, preferably under conditions which equate to or are identical with those set out in Example 2. The skilled person is able to justify which assay conditions/assays equate with the assay/conditions exemplified in the appended examples. The melanin accumulation evaluated in Example 2 is depicted in FIG. 3. The effect of the compounds of the invention on extracellular melanin accumulation is thus determinable by the methods disclosed herein.
To exclude a potential melanotropic effect of KPT and KPV, 2500 B16.F1 melanoma cells were seeded out on 96-well tissue culture plates in quintuplicate at a density of 2500 cells/well in regular culture medium. On the next day routine medium was changed to medium containing the above peptides at 10^−6, 10^−8 and 10^−10 M vs. medium containing the superpotent MSH analogue NDP-α-MSH (10^−8 M). The latter served as positive control while cells without any other stimulus served as negative control. Cells were then cultured for 72 hrs followed by photometric measurement of the optical density (wavelength 405 nm) of each well. This procedure measures the amount of extracellular melanin produced by the cells according to the well-established and described methodology by Siegrist & Eberle, Anal. Biochem. 1986; 159: 191-197.

Compound | antioxidative protective effects in human dermal fibroblasts (summary statement) [1] | effect on UVA-induced intracellular amplification of ROS compared with vitamin C (ascorbate) [1] | effect on UVA-induced intracellular amplification of ROS ("oxidative stress") [1] | melanotropic effect (extracellular melanin accumulation) [2] | melanotropic effect (extracellular melanin accumulation), positive control ([2]; 10^-8 M)
NC(=O)[C@@H]1CCCN1C(=O)[C@H](Cc1c[nH]cn1)NC(=O)[C@@H]1CCC(=O)N1 [TRH, L-Pyroglutamyl-L-histidyl-L-prolinamid] | show antioxidative protective effects | comparable with that of vitamin C | suppressed UVA-induced intracellular amplification of ROS |  | 
Lys-Pro-Val [KPV] | show antioxidative protective effects |  | suppressed UVA-induced intracellular amplification of ROS | did not have any melanotropic effect | 
Lys-[dP]-Thr [KPT] | show antioxidative protective effects | comparable with that of vitamin C | suppressed UVA-induced intracellular amplification of ROS | did not have any melanotropic effect | 
NDP-α-MSH [reference compound] |  |  |  |  | p<0.001 vs. control
